The values below come from patent US11000033B2, “Ketone or oxime compound, and herbicide” (NISSAN CHEMICAL CORPORATION, priority 2014, dated 2021).

Common to all, as to format: in vivo
The test system of one data set is Digitaria ciliaris. The experiment in a line: Test Example 5: herbicidal effect by foliage application, plastic box (symbol F). The note with it: 320 g/ha, 3 weeks after application. A digest of the protocol: (§1)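 Post-emergence spray; diluvial soil (sterilized), ~1.5 cm seed cover; greenhouse 25–30° C; 14-day-old plants; water-diluted emulsion at predetermined dose; visual score at 3 wk post-treatment.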

In the next data set the test system is rice plant. In words: Test Example 5: effect on crop by foliage application, plastic box (symbol b). The note with it: 320 g/ha, 3 weeks after application. A digest of the protocol:
(§2)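 Sterilized diluvial soil, plastic box (21 × 13 × 7 cm); spot sowing, ~1.5 cm soil cover; greenhouse 25–30° C.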

The next data set has as its system Lolium multiflorum Lam. In words: Test Example 4: herbicidal effect by soil treatment (symbol K). Particulars: application herbicide amount 320 g/ha. A digest of the protocol: (§3)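 Seeds were sown in sterilized diluvial soil, covered with about 1.5 cm of soil, and the soil surface was sprayed with a water-diluted emulsion of the compound at a predetermined rate. Plants grew in a greenhouse at 25° C. to 30° C.; effects were scored visually 3 weeks after application.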

For data set [1], the system named is Amaranthus retroflexus. In words: Test Example 4: herbicidal effect by soil treatment (symbol N). Particulars: application herbicide amount 320 g/ha. A digest of the protocol:
as §3

Data set [2] has as its system wheat. In words: Test Example 5: effect on crop by foliage application, plastic box (symbol e). Particulars: 320 g/ha, 3 weeks after application. A digest of the protocol: as §2
In data set [3] the test system is Amaranthus retroflexus. The experiment in a line: Test Example 5: herbicidal effect by foliage application, plastic box (symbol N). The note with it: 320 g/ha, 3 weeks after application. A digest of the protocol: as §1
The subject of data set [4] is Setaria viridis. In words: Test Example 5: herbicidal effect by foliage application, plastic box (symbol G). The note with it: 320 g/ha, 3 weeks after application. A digest of the protocol: as §1
The subject of a further data set is Stellaria media. In words: Test Example 4: herbicidal effect by soil treatment (symbol P). The note with it: application herbicide amount 320 g/ha. The procedure, abridged: as §3
Data set [5] has as its system Echinochloa crus-galli var. crus-galli. In words: Test Example 5: herbicidal effect by foliage application, plastic box (symbol H). Particulars: 320 g/ha, 3 weeks after application. The procedure, abridged:
as §1

Another data set deals with rice. In words: Test Example 4: effect on crop by soil treatment (symbol b). Particulars: application herbicide amount 320 g/ha. A digest of the protocol:
(§4)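 Sterilized diluvial soil, spot sowing, ~1.5 cm soil cover; greenhouse 25–30° C.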

For another data set, the system named is corn. The experiment in a line: Test Example 4: effect on crop by soil treatment (symbol c). Particulars: application herbicide amount 320 g/ha. A digest of the protocol: as §4
Data set [6] deals with soybean. The experiment in a line: Test Example 5: effect on crop by foliage application, plastic box (symbol d). Particulars: 320 g/ha, 3 weeks after application. A digest of the protocol: as §2
Data set [7] relates to Alopecurus myosuroides. In words: Test Example 4: herbicidal effect by soil treatment (symbol J). Particulars: application herbicide amount 320 g/ha. A digest of the protocol: as §3
For data set [8], the system named is Alopecurus myosuroides. The experiment in a line: Test Example 5: herbicidal effect by foliage application, plastic box (symbol J). Particulars: 320 g/ha, 3 weeks after application. The procedure, abridged:
as §1

For a further data set, the system named is Avena fatua. The experiment in a line: Test Example 4: herbicidal effect by soil treatment (symbol I). The note with it: application herbicide amount 320 g/ha. The procedure, abridged:
as §3

The test system of a further data set is Scirpus juncoides. The experiment in a line: Test Example 1: herbicidal activity, application before weed generation in submerged conditions (symbol B). Particulars: application herbicide amount 320 g/ha. A digest of the protocol: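 In a flooded pot test with alluvial soil, the emulsion-formulated compound was diluted with water to a predetermined amount and applied to the floodwater immediately on the sowing day. Pots were held in a greenhouse at 25–30 °C for 3 weeks before each weed was rated.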

Data set [9] concerns Setaria viridis. In words: Test Example 4: herbicidal effect by soil treatment (symbol G). Particulars: application herbicide amount 320 g/ha. A digest of the protocol: as §3
Data set [10] relates to soybean. The experiment in a line: Test Example 4: effect on crop by soil treatment (symbol d). The note with it: application herbicide amount 320 g/ha. A digest of the protocol: as §4
The next data set deals with Galium spurium. The experiment in a line: Test Example 5: herbicidal effect by foliage application, plastic box (symbol Q). Particulars: 320 g/ha, 3 weeks after application. The procedure, abridged: as §1
Another data set concerns Abutilon theophrasti. In words: Test Example 4: herbicidal effect by soil treatment (symbol M). The note with it: application herbicide amount 320 g/ha. The procedure, abridged:
as §3

Data set [11] has as its system wheat. The experiment in a line: Test Example 4: effect on crop by soil treatment (symbol e). The note with it: application herbicide amount 320 g/ha. A digest of the protocol:
as §4

Turning to `CON=C(C)CC1CC(O)=C(c2c(C)cc(OCc3ccncc3)cc2C)C1=O` (mixture of isomers) [6-053], the “F: Digitaria ciliaris, herbicidal effect grade” value in the data set on Digitaria ciliaris is on record as 5 (Herbicidal ratio of 90% or more (almost completely withered)). The “b: directly sowed rice plant, effect on crop grade” value in the data set with rice plant was 3 (Herbicidal ratio of 40% or higher and lower than 70%); in the data set on rice it was 2 (Herbicidal ratio of 20% or higher and lower than 40%). Also, the “K: Lolium multiflorum Lam., herbicidal effect grade” value in the data set with Lolium multiflorum Lam. is listed as 0 (Herbicidal ratio of 5% or lower (almost no effect)). Besides, the “N: Amaranthus retroflexus, herbicidal effect grade” value with Amaranthus retroflexus [1] and in the data set on Amaranthus retroflexus [3] was 0 (Herbicidal ratio of 5% or lower (almost no effect)) in each case. In addition, the “e: wheat, effect on crop grade” value in the data set on wheat [2] and in the data set on wheat [11] was 0 (Herbicidal ratio of 5% or lower (almost no effect)) throughout. The “G: Setaria viridis, herbicidal effect grade” value with Setaria viridis [4] is 5 (Herbicidal ratio of 90% or more (almost completely withered)); in the data set with Setaria viridis [9], 3 (Herbicidal ratio of 40% or higher and lower than 70%). In the data set on Stellaria media, the “P: Stellaria media, herbicidal effect grade” value is given as 0 (Herbicidal ratio of 5% or lower (almost no effect)). In addition, the “H: Echinochloa crus-galli var. crus-galli, herbicidal effect grade” value in [5] is reported as 5 (Herbicidal ratio of 90% or more (almost completely withered)). In the data set with corn, the “c: corn, effect on crop grade” value was 1 (Herbicidal ratio of 5% or higher and lower than 20%). For the same compound, the “d: soybean, effect on crop grade” value in the data set with soybean [6] and in the data set with soybean [10] was 0 (Herbicidal ratio of 5% or lower (almost no effect)) each time. In addition, the “J: Alopecurus myosuroides, herbicidal effect grade” value with Alopecurus myosuroides [7] is 0 (Herbicidal ratio of 5% or lower (almost no effect)); in the data set on Alopecurus myosuroides [8], 3 (Herbicidal ratio of 40% or higher and lower than 70%). For the same compound, the “I: Avena fatua, herbicidal effect grade” value with Avena fatua is 1 (Herbicidal ratio of 5% or higher and lower than 20%). In the data set with Scirpus juncoides, the “Herbicidal effect grade, B: Scirpus juncoides” value is 2 (Herbicidal ratio of 20% or higher and lower than 40%). Moreover, the “Q: Galium spurium, herbicidal effect grade” value with Galium spurium is given as 0 (Herbicidal ratio of 5% or lower (almost no effect)). Further, the “M: Abutilon theophrasti, herbicidal effect grade” value with Abutilon theophrasti was 0 (Herbicidal ratio of 5% or lower (almost no effect)).
